PMC11945486, “TAS1R2/TAS1R3 Single-Nucleotide Polymorphisms Affect Sweet Taste Receptor Activation by Sweeteners: The SWEET Project” (Nutrients, 2025)
Where two headings read alike, the source gives them in different places. No end group written: not given here.

T1: human TAS1R2-WT/TAS1R3-F749S (Homo sapiens, UniProt Q7RTX0+Q8TE23, F749S)
T1 construct: expressed in transfected cells; host or cells: HEK293T stably expressing Gα16gust44
T1 sequence (Q8TE23 20-839): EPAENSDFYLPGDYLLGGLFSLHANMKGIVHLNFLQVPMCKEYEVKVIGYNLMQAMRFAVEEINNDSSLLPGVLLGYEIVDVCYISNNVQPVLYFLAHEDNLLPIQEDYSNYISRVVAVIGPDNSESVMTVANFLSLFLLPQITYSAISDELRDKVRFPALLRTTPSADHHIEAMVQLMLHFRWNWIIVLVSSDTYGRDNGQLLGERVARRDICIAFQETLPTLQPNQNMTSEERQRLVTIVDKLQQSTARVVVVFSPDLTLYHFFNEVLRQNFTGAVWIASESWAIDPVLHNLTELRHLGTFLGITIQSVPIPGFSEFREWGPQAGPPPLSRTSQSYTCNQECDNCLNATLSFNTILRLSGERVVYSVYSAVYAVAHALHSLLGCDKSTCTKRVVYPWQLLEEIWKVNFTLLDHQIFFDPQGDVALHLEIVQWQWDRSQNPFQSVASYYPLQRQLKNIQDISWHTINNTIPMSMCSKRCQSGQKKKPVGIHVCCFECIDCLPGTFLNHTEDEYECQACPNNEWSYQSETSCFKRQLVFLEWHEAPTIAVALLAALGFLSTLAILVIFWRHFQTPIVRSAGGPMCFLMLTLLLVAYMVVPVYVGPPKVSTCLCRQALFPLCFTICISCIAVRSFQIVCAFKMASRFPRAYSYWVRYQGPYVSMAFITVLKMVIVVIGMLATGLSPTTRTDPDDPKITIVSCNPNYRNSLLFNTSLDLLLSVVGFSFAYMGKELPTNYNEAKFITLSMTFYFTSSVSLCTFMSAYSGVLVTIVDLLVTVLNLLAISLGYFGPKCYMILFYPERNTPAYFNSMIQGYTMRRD
T1 sequence (Q7RTX0 21-852 F749S): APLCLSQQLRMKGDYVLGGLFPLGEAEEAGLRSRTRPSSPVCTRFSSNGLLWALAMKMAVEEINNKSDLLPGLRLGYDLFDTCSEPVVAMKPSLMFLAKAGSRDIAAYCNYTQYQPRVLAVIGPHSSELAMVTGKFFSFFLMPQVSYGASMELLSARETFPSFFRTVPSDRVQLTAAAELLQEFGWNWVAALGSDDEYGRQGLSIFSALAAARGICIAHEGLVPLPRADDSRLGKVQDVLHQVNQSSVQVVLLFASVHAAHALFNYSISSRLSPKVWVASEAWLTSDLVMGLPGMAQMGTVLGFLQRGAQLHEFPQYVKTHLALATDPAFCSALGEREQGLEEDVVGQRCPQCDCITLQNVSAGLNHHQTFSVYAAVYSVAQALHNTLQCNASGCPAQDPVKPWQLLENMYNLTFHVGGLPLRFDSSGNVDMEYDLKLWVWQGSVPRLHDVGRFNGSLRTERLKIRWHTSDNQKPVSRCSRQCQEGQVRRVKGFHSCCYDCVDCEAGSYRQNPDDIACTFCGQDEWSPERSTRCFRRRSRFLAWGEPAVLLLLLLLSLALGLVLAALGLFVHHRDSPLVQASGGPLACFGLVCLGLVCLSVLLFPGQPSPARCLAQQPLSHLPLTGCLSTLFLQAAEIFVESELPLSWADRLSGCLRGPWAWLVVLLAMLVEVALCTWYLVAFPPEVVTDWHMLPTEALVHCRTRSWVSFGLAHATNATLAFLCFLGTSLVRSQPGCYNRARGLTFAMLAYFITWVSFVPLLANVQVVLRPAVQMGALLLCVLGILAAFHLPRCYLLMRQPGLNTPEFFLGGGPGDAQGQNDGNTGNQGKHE


Target: T1, human TAS1R2-WT/TAS1R3-F749S
Test: Calcium mobilisation assay, TAS1R2-WT with TAS1R3 variant F749S
Format: cell-based
Settings: for Max ΔF/F0: maximal signal amplitude
Source text: The coding sequences for TAS1R2 and TAS1R3 were commercially synthesised, and the human codon was optimised for expression in human cells. The coding sequences of human TAS1R2 and TAS1R3 were subcloned and inserted into the mammalian expression vectors pcDNA6/myc-HisA and pcDNA4/myc-HisA (Invitrogen; Thermo Fisher Scientific; Illkirch, France) between the EcoRI and NotI restriction sites, generating the plasmids pcDNA6-TAS1R2 and pcDNA4-TAS1R3, respectively. To increase protein expression in mammalian cells, an upstream start codon was used, which was a sequence called MAX, corresponding to the QBI SP163 element also described in pcDNA4-HisMax (Invitrogen; Thermo Fisher Scientific; Illkirch, France). To measure the expression level of the receptor by immunohistochemistry, we used the FLAG sequence ([…]) in the C-terminal position, which encodes the FLAG tag epitope. SNP variants of TAS1R2 and TAS1R3 were constructed based on […], respectively, using site-directed mutagenesis (Genewiz; Leipzig, Germany).
The HEK293T cells were kindly provided by Jay P. Slack (Givaudan Flavors Corporation; Cincinnati, OH, USA). HEK293T cells stably transfected with Gα16gust44 [43, 67] were seeded in poly-D-lysine-coated clear-bottom black 96-well plates (0.35 × 10^5 cells/well) in high-glucose DMEM supplemented with 2 mM GlutaMAX, 10% dialysed foetal bovine serum with penicillin/streptomycin and G418 (400 μg/mL) at 37 °C and 6.3% CO2 in a humidified atmosphere as previously reported. […] As a negative control, HEK293T cells were mock-transfected with the empty expression vector. After a further 24 h of incubation, the HEK293T cells were washed with C1 buffer (130 mM NaCl, 5 mM KCl, 10 mM HEPES pH 7.4 and 2 mM CaCl2). The 96-well plates containing the cells were then stimulated with sweet-tasting compounds. […] Different concentration ranges were tested depending on the sweet compound injected. The Ca^2+ changes were expressed as fractional changes in fluorescent light intensity: ΔF/F = (F − F0)/F0, where F was the fluorescent light intensity at each point, and F0 was the value of emitted fluorescent light prior to stimulus application. To calculate dose–response relationships, the changes in fluorescence upon stimulus application were averaged, mock-subtracted and baseline-corrected. The dose–response data obtained were adjusted using a 4-parameter logistic equation. The half-maximal effective concentrations (EC50 values) and maximal signal amplitudes were calculated using SigmaPlot software (version 15.0) (Systat Software; San Jose, CA, USA).
For in vitro calcium mobilisation assay performed on hTAS1R2-SNPs, hTAS1R3-SNPs and mTAS1R3-I60T, 6 to 7 concentrations were tested for each sweet compound, plus buffer alone. All concentration–receptor combinations were measured in duplicate, and each experiment was repeated at least 4 times (8 wells/concentration). Results were expressed for each concentration as ΔF/F mean ± SEM and represented as dose–response curves.

Molecule	R1 = Variant EC50/WT EC50	Max ΔF/F0	EC50 (read-out: EC50)	EC50 (brazzein)
CC1=CC(=O)NS(=O)(=O)O1 [Acesulfame K, acesulfame K]	0.7	0.04 ± 0.01	410 ± 242 µM	–
O=S(=O)(O)NC1CCCCC1 [Cyclamate, cyclamate]	–	–	3430 ± 1990 µM	–
C[C@H](CC[C@@H](O[C@@H]1O[C@H](CO[C@@H]2O[C@H](CO)[C@@H](O)[C@H](O)[C@H]2O)[C@@H](O)[C@H](O)[C@H]1O[C@@H]1O[C@H](CO)[C@@H](O)[C@H](O)[C@H]1O)C(C)(C)O)[C@H]1CC[C@@]2(C)[C@@H]3CC=C4[C@@H](CC[C@H](O[C@@H]5O[C@H](CO[C@@H]6O[C@H](CO)[C@@H](O)[C@H](O)[C@H]6O)[C@@H](O)[C@H](O)[C@H]5O)C4(C)C)[C@]3(C)[C@H](O)C[C@]12C [Mogroside V, mogroside V]	2.1	0.47 ± 0.02	65.5 ± 5.4 µM	–
COc1ccc(CCC(=O)c2c(O)cc(O[C@@H]3O[C@H](CO)[C@@H](O)[C@H](O)[C@H]3O[C@@H]3O[C@@H](C)[C@H](O)[C@@H](O)[C@H]3O)cc2O)cc1O [NHDC, neohesperidin dihydrochalcone]	3.0	0.29 ± 0.01	150 ± 19.6 µM	–
COC(=O)[C@H](Cc1ccccc1)NC(=O)[C@H](CC(=O)O)NCCC(C)(C)C [Neotame]	1.5	0.22 ± 0.01	1.82 ± 0.12 µM	–
C=C(C)[C@@H]1CC=C(/C=N/O)CC1 [Perillartine, perillartine]	0.9	1.90 ± 0.30	12.1 ± 6.1 µM	–

Continued, values first:

R1 = Variant EC50/WT EC50	Max ΔF/F0	EC50 (read-out: EC50)	EC50 (brazzein)	Molecule
1.8	0.54 ± 0.03	71.8 ± 9.6 µM	–	C=C1C[C@@]23CC[C@H]4[C@@](C)(CCC[C@@]4(C)C(=O)O[C@@H]4O[C@H](CO)[C@@H](O)[C@H](O[C@@H]5O[C@H](CO)[C@@H](O)[C@H](O)[C@H]5O)[C@H]4O[C@@H]4O[C@H](CO)[C@@H](O)[C@H](O)[C@H]4O)[C@@H]2CC[C@]1(O[C@@H]1O[C@H](CO)[C@@H](O)[C@H](O[C@@H]2O[C@H](CO)[C@@H](O)[C@H](O)[C@H]2O)[C@H]1O[C@@H]1O[C@H](CO)[C@@H](O)[C@H](O)[C@H]1O)C3 [Rebaudioside M, rebaudioside M]
2.3	0.18 ± 0.01	252 ± 36 µM	–	OC[C@H]1O[C@H](O[C@]2(CCl)O[C@H](CCl)[C@@H](O)[C@@H]2O)[C@H](O)[C@@H](O)[C@H]1Cl [Sucralose]
1.9	0.65 ± 0.01	–	212.2 ± 8.6 µg/mL	brazzein (QDKCKKVYENYPVSKCQLANQCNYDCKLDKHARSGECFYDEKRNLQCICDYCEY; ends and bridges not checked; cysteine pairing not given here; UniProt P56552 1-54, looked up) [sweet-tasting protein obtained by recombinant production using the yeast Pichia pastoris]
3.0	0.42 ± 0.03	–	–	thaumatin
–	–	31.2 ± 3.5 µM	–	thaumatin (protein, Eight disulfides, sweet-tasting plant protein, E957) ATFEIVNRCSYTVWAAASKGDAALDAGGRQLNSGESWTINVEPGTKGGKIWARTDCYFDDSGSGICKTGDCGGLLRCKRFGRPPTTLAEFSLNQYGKDYIDISNIKGFNVPMDFSPTTRGCRGVRCAADIVGQCPAKLKAPGGGCNDACTVFQTSEYCCTTGKCGPTEYSRFFKRLCPDAFSYVLDKPTTVTCPGSSNYRVTFCPTA
